From patent publication EP0730590B1, “ISOXAZOLINE AND ISOXAZOLE FIBRINOGEN RECEPTOR ANTAGONISTS” (Dupont Pharmaceuticals Company, priority 1993, dated 1995)

molecular target: agonist-induced platelet aggregation (Homo sapiens, UniProt P05106+P08514); assay: Platelet Aggregation Assay in platelet-rich plasma (PRP); type: cell-based; settings: without esterase
Procedure: Platelet Aggregation Assay: Venous blood was obtained from the arm of a healthy human donor who was drug-free and aspirin-free for at least two weeks prior to blood collection. Blood was collected into 10 ml citrated Vacutainer tubes. The blood was centrifuged for 15 minutes at 150 x g at room temperature, and platelet-rich plasma (PRP) was removed. The remaining blood was centrifuged for 15 minutes at 1500 x g at room temperature, and platelet-poor plasma (PPP) was removed. Samples were assayed on a aggregometer (PAP-4 Platelet Aggregation Profiler), using PPP as the blank (100% transmittance). 200 µl of PRP was added to each micro test tube, and transmittance was set to 0%. 20 µ of various agonists (ADP, collagen, arachidonate, epinephrine, thrombin) were added to each tube, and the aggregation profiles were plotted (% transmittance versus time). The results are expressed as % inhibition of agonist-induced platelet aggregation. For the IC50 evaluation, the test compounds were added at various concentrations prior to the activation of the platelets.
Table A below sets forth the antiplatelet activity of representative compounds of the present invention. The indicated compounds were tested for their ability to inhibit platelet aggregation (using platelet rich plasma (PRP)). […]

Sequence of agonist-induced platelet aggregation (P08514 with tags, fused parts or gaps): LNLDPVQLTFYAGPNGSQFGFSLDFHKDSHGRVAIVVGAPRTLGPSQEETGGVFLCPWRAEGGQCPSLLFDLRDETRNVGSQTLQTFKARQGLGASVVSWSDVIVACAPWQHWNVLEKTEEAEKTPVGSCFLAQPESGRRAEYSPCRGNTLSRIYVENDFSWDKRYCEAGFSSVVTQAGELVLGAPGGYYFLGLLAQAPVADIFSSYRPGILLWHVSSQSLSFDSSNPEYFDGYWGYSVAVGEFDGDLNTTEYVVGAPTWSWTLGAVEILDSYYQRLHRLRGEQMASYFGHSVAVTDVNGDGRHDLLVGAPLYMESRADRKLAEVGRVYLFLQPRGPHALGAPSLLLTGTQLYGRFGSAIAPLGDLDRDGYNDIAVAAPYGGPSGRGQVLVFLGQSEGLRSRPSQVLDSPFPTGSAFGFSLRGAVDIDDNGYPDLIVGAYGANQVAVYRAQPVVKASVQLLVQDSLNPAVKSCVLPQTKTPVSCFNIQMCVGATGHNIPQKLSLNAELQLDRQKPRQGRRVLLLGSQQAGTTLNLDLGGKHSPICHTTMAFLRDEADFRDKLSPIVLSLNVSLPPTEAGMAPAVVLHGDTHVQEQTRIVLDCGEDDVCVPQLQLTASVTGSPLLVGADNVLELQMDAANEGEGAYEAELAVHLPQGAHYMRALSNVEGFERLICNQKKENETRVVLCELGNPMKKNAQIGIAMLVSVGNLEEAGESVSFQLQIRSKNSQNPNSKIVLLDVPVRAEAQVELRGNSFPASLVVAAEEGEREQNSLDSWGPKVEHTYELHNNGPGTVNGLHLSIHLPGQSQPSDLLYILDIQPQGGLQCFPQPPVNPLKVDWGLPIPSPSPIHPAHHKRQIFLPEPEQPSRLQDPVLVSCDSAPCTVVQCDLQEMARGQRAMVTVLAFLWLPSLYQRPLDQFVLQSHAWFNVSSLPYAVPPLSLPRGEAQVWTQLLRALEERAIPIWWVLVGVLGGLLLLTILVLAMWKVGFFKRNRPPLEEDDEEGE
Sequence of agonist-induced platelet aggregation (P05106 27-788): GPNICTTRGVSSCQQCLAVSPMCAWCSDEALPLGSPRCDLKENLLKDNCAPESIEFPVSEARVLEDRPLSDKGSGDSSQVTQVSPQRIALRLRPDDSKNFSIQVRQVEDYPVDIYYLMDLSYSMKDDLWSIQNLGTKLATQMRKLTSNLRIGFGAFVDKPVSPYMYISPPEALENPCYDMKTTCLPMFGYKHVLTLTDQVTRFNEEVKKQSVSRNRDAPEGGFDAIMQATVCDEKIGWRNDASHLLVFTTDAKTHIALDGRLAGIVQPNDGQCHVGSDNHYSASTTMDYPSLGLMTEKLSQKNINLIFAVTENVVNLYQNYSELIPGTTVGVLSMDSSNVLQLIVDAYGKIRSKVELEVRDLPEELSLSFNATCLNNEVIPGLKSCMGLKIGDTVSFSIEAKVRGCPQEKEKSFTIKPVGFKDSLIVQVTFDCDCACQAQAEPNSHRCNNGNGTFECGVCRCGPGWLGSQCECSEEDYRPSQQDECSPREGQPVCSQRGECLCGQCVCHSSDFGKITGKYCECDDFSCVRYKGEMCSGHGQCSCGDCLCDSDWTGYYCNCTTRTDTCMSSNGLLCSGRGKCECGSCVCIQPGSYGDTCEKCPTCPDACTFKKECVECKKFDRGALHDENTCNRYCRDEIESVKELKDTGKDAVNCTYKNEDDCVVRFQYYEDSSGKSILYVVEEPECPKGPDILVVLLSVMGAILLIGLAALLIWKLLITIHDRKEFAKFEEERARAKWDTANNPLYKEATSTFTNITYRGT

Compound | IC50 [µM]
O=C(O)CCCN1C(=O)CC2(CC(CCCC3CCNCC3)=NO2)C1=O (stereo not shown) [Example 373] | 10 to 50

molecular target: human platelet rich plasma (Homo sapiens, UniProt P05106+P08514); assay: Platelet Aggregation Assay, ester prodrugs preincubated with porcine liver esterase; type: cell-based; settings: platelet rich plasma (PRP)
Procedure: Aliquots are then diluted in 0.1 M Tris, pH 7.4, to the desired concentrations. Aliquots of 20 µl of the esterase pretreated prodrugs are added to 200 µl of human platelet rich plasma. […] Platelet aggregation was allowed to proceed for 5 minutes. Percent inhibition is calculated using percent aggregation in the presence of the test compound divided by percent aggregation of control, times 100. This value is subtracted from 100, yielding percent inhibition. Calculation of IC50 is performed on a Texas Instruments TI59 with an IC50 program.

Sequence of human platelet rich plasma (P08514 with tags, fused parts or gaps): as the sequence (P08514 with tags, fused parts or gaps) above
Sequence of human platelet rich plasma (P05106 27-788): as the sequence (P05106 27-788) above

Compound | IC50 [µM]
Methyl N^2-(m-toluenesulfonyl)-N^3-[3-(3-amidinopyrid-6-yl)isoxazolin-5-ylacetyl]-S-2,3-diaminopropionate bis hydrochloric acid salt [Example 514] | < 10
Methyl N^2-(n-butyloxycarbonyl)-N^3-[3-(2-amidinopyrid-5-yl) isoxazolin-5-ylacetyl]-S-2,3-diaminopropionate bis hydrochloric acid salt [Example 515] | < 10
Methyl N^2-(m-toluenesulfonyl)-N^3-[3-(2-amidinopyrid-5-yl)isoxazolin-5-ylacetyl]-S-2,3-diaminopropionate bis hydrochloric acid salt [Example 516] | < 10
COC(=O)C(CNC(=O)CC1CC(c2ccc(C(=N)N)cc2)=NO1)NC(=O)c1ccc(-c2ccccc2)cc1 (stereo not shown) [Example 523] | < 10
COC(=O)C(CNC(=O)CC1CC(c2ccc(C(=N)N)cc2)=NO1)NS(=O)(=O)c1ccc(-c2ccccc2)cc1 (stereo not shown) [Example 546] | < 10
Methyl N^2-(n-butyloxycarbonyl)-N^3-[3-(3-amidinopyrid-6-yl) isoxazolin-5-ylacetyl]-S-2,3-diaminopropionate bis hydrochloric acid salt [Example 513] | < 10
